{"source": "paper PMC7811525", "about": "“Virtual screening of potentially endocrine-disrupting chemicals against nuclear receptors and its application to identify PPARγ-bound fatty acids” (Archives of Toxicology, 2020)", "key": {"RORγ": {"test_system": "RORγ", "design": "method as in ToxCast database released in October 2015", "details": "active/inactive call; ref ToxCast database released in October 2015; cited from earlier work"}, "[1]": {"molecular_target": "T1, PPARγ ligand binding domain (204–477) (Homo sapiens, UniProt P37231)", "T1 construct": "GST (N, cleaved yes); made in house; host or cells: E. coli BL21(DE3)", "T1 sequence (P37231 204-477 isoform P37231-2)": "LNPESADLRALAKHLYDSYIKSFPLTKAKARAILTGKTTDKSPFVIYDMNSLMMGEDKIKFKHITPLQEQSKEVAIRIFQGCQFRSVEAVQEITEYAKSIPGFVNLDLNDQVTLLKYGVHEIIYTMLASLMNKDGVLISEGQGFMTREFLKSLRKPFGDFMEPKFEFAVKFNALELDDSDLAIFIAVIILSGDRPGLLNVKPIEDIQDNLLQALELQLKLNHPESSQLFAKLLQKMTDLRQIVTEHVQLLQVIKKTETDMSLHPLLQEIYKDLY", "assay": "Surface plasmon resonance (SPR) analysis of fatty acid binding to immobilized PPARγ LBD", "details": "for Rmax: SPR steady-state fit, FUA: chip coupled with 12000RU; for binding to PPARγ in SPR (in words): compared with DHA and EPA; for Kd: steady-state fit, Biacore T200, chip about 6500 RU (FUA: chip coupled with 12000RU PPARγ LBD)", "description": "The protein was firstly purified using a glutathione Sephararose 4B column, followed by PreScission protease cleavage to remove the GST-tag. […] The finally collected protein in 20 mM Tirs, pH8.0, 150 mM NaCl and 2 mM DTT was concentrated to 20 mg/ml. The purity was checked by SDS-PAGE and protein was stored at − 80 °C for use.\nPPARγ (0.05 mg/ml) were coupled onto CM5 sensor chips according to amine coupling procedure from the manufacturer’s manual. […] A reference channel was generated at same conditions without protein injection and used as a blank control to correct the instrument or buffer artifacts. Fatty acids were dissolved in DMSO and diluted with concentration ranging from 0.78 to 50 μM, and injected at a flowrate of 40 μL/min. Each sensorgram consists of an association phase (120 s), indicating the binding of the injected compound to the protein, followed by a dissociation phase (300 s) during which the running buffer (10 mM phosphate buffer, 150 mM NaCl, 5% DMSO, 0.05% Tween 20, pH 7.4) is passed over and the bound compounds were eluted from the chip surface. The Kd was calculated by steady-state binding fitting method in Biacore T200 evaluate the software."}, "GR": {"test_system": "GR", "design": "method as in ToxCast database released in October 2015", "details": "active/inactive call; ref ToxCast database released in October 2015; cited from earlier work"}, "PR": {"test_system": "PR", "design": "method as in ToxCast database released in October 2015", "details": "active/inactive call; ref ToxCast database released in October 2015; cited from earlier work"}, "AR": {"test_system": "AR", "design": "method as in ToxCast database released in October 2015", "details": "active/inactive call; ref ToxCast database released in October 2015; cited from earlier work"}, "PPARα": {"test_system": "PPARα", "design": "method as in ToxCast database released in October 2015", "details": "active/inactive call; ref ToxCast database released in October 2015; cited from earlier work"}}, "note": "Entries after “also recorded” stand apart in the source; their conditions may differ."}
{"compound": "CC(C)c1cccc(C(C)C)c1N1C(=O)c2ccc(O)cc2C1=O", "note": "[5HPP-33]", "values": [{"measurement": "ToxCast activity against RORγ", "setting": "RORγ", "result": "active"}]}
{"compound": "CC/C=C\\C/C=C\\C/C=C\\C/C=C\\C/C=C\\C/C=C\\CCC(=O)O", "note": "[DHA, Docosahexaenoic acid, reference compound]", "values": [{"measurement": "Rmax", "setting": "[1]", "result": 281, "unit": "RU"}]}
{"compound": "CC/C=C\\C/C=C\\C/C=C\\C/C=C\\C/C=C\\CCCCCC(=O)O", "note": "[DPA, docosapentaenoic acid]", "values": [{"measurement": "Rmax", "setting": "[1]", "result": 2167, "unit": "RU"}, {"measurement": "binding to PPARγ in SPR (in words)", "setting": "[1]", "result": "weaker binding than DHA; also recorded: confirmed to bind to PPARγ, weaker than DHA and EPA"}, {"measurement": "Kd", "setting": "[1]", "result": 3960, "unit": "µM"}]}
{"compound": "CC/C=C\\C/C=C\\C/C=C\\C/C=C\\C/C=C\\CCCC(=O)O", "note": "[EPA, Eicosapentaenoic acid, reference compound]", "values": [{"measurement": "Rmax", "setting": "[1]", "result": 136, "unit": "RU"}, {"measurement": "Kd", "setting": "[1]", "result": 629, "unit": "µM"}]}
{"compound": "CC(C)[C@H](C(=O)O[C@H](C#N)c1cccc(Oc2ccccc2)c1)c1ccc(Cl)cc1", "note": "[Esfenvalerate]", "values": [{"measurement": "ToxCast activity against GR", "setting": "GR", "result": "active"}]}
{"compound": "CCCCCc1cc(C)c(CCCCCCCCC(=O)O)o1", "note": "[FNA, 10,13-epoxy-11-methyloctadeca-10,12-dienoic acid]", "values": [{"measurement": "Rmax", "setting": "[1]", "result": 38.55, "unit": "RU"}, {"measurement": "binding to PPARγ in SPR (in words)", "setting": "[1]", "result": "stronger binding than DHA and EPA"}, {"measurement": "Kd", "setting": "[1]", "result": 136, "unit": "µM"}]}
{"compound": "CCCc1cc(C)c(CCCCCCCCCCC(=O)O)o1", "note": "[FUA, 11-(3-methyl-5-propylfuran-2-yl)undecanoic acid]", "values": [{"measurement": "Rmax", "setting": "[1]", "result": 459.3, "unit": "RU"}, {"measurement": "binding to PPARγ in SPR (in words)", "setting": "[1]", "result": "stronger binding than DHA and EPA"}, {"measurement": "Kd", "setting": "[1]", "result": 249, "unit": "µM"}]}
{"compound": "CC1(C)NC(=O)N(c2ccc([N+](=O)[O-])c(C(F)(F)F)c2)C1=O", "note": "[Nilutamide]", "values": [{"measurement": "ToxCast activity against PR", "setting": "PR", "result": "active"}]}
{"compound": "O=C(O)CN(CC(=O)O)CC(=O)O", "note": "[Nitrilotriacetic acid]", "values": [{"measurement": "ToxCast activity against AR", "setting": "AR", "result": "active"}]}
{"compound": "CCCCCCC1CC1CCCCCCCCCC(=O)O", "note": "(centres unmarked) [PTA, Phytomonic acid]", "values": [{"measurement": "Rmax", "setting": "[1]", "result": 33.28, "unit": "RU"}, {"measurement": "binding to PPARγ in SPR (in words)", "setting": "[1]", "result": "stronger binding than DHA and EPA"}, {"measurement": "Kd", "setting": "[1]", "result": 103, "unit": "µM"}]}
{"compound": "CCCCCC[C@@H](O)C/C=C\\CCCCCCCC(=O)O", "note": "[ROA, ricinoleic acid]", "values": [{"measurement": "Rmax", "setting": "[1]", "result": "> 10,000.00 RU"}, {"measurement": "binding to PPARγ in SPR (in words)", "setting": "[1]", "result": "weaker binding than DHA"}, {"measurement": "Kd", "setting": "[1]", "result": "> 10000", "unit": "µM"}]}
{"compound": "CN1CCc2cccc3c2[C@H]1Cc1ccc(O)c(O)c1-3", "note": "[apomorphine, reference compound]", "values": [{"measurement": "ToxCast activity against PPARα", "setting": "PPARα", "result": "active"}]}
{"compound": "CCOC(=O)C(C)OC(=O)c1cc(Oc2ccc(C(F)(F)F)cc2Cl)ccc1[N+](=O)[O-]", "note": "(centres unmarked) [lactofen]", "values": [{"measurement": "ToxCast activity against AR", "setting": "AR", "result": "active"}]}
{"compound": "O=c1c(O)c(-c2ccc(O)cc2O)oc2cc(O)cc(O)c12", "note": "[morin]", "values": [{"measurement": "ToxCast activity against PPARα", "setting": "PPARα", "result": "active"}]}
{"compound": "Cl.N=C1C=CC(=C(c2ccc(N)cc2)c2ccc(N)cc2)C=C1", "note": "[parafuchsin]", "values": [{"measurement": "ToxCast activity against RORγ", "setting": "RORγ", "result": "active"}]}
{"compound": "Oc1ccc(/C=C/c2cc(O)cc(O)c2)cc1", "note": "[reservertol]", "values": [{"measurement": "ToxCast activity against RORγ", "setting": "RORγ", "result": "active"}]}
{"compound": "O=C(c1ccc(O)cc1O)c1ccc(O)cc1O", "note": "[tetrahydroxybenzophenone]", "values": [{"measurement": "ToxCast activity against AR", "setting": "AR", "result": "active"}]}
{"compound": "CC1(C)CCC(=Cc2ccc(Cl)cc2)C1(O)Cn1cncn1", "note": "(centres unmarked) [triconazole]", "values": [{"measurement": "ToxCast activity against AR", "setting": "AR", "result": "active"}]}
{"compound": "eicosatrienoic acid [ESA]", "values": [{"measurement": "Rmax", "setting": "[1]", "result": "> 10,000.00 RU"}, {"measurement": "binding to PPARγ in SPR (in words)", "setting": "[1]", "result": "weaker binding than DHA"}, {"measurement": "Kd", "setting": "[1]", "result": "> 10000", "unit": "µM"}]}
